Source: patent US20190284148A1, “MICROBIOCIDAL OXADIAZOLE DERIVATIVES” (SYNGENTA PARTICIPATIONS AG, priority 2016, published 2019)

Legend:
[1] = system: Glomerella Lagenarium (Colletotrichum Lagenarium); test: Glomerella lagenarium (Colletotrichum lagenarium) liquid culture / cucumber / preventative (anthracnose); format: cell-based; settings: Colletotrichum orbiculare; 20 ppm in the applied formulation; liquid culture in PDB, 24° C., 3 to 4 days after application; read-out: disease control compared to untreated control (inhibition of growth measured photometrically)
Protocol: Mycelia fragments or conidia suspensions of a fungus prepared either freshly from liquid cultures of the fungus or from cryogenic storage, are directly mixed into nutrient broth. DMSO solutions of the test compound (max. 10 mg/ml) are diluted with 0.025% Tween20 by a factor of 50 and 10 μl of this solution is pipetted into a microtiter plate (96-well format). The nutrient broth containing the fungal spores/mycelia fragments is then added to give an end concentration of the tested compound. The test plates are incubated in the dark at 24° C. and 96% relative humidity. The inhibition of fungal growth is determined photometrically after 2 to 7 days, depending on the pathosystem, and percent antifungal activity relative to the untreated check is calculated.
Conidia of the fungus from cryogenic storage are directly mixed into nutrient broth (PDB—potato dextrose broth). After placing a (DMSO) solution of test compound into a microtiter plate (96-well format), the nutrient broth containing the fungal spores is added. The test plates are incubated at 24° C. and the inhibition of growth is measured photometrically 3 to 4 days after application.
The following compounds at 20 ppm in the applied formulation give at least 80% disease control in this test when compared to untreated control under the same conditions, which show extensive disease development.

[2] = system: Puccinia Recondita f. sp. Tritici; test: Puccinia recondita f. sp. tritici / wheat / leaf disc preventative (brown rust); format: in vivo; settings: foliar, 200 ppm in the applied formulation, wheat leaf segments cv. Kanzler, preventative (inoculated 1 day after application), assessed 7 to 9 days after application, read-out: disease control compared to untreated control leaf disks
Protocol: Leaf disks or leaf segments of various plant species are cut from plants grown in a greenhouse. The cut leaf disks or segments are placed in multiwell plates (24-well format) onto water agar. The leaf disks are sprayed with a test solution before (preventative) or after (curative) inoculation. Compounds to be tested are prepared as DMSO solutions (max. 10 mg/ml) which are diluted to the appropriate concentration with 0.025% Tween20 just before spraying. The inoculated leaf disks or segments are incubated under defined conditions (temperature, relative humidity, light, etc.) according to the respective test system. A single evaluation of disease level is carried out 3 to 14 days after inoculation, depending on the pathosystem. Percent disease control relative to the untreated check leaf disks or segments is then calculated. Wheat leaf segments cv. Kanzler were placed on agar in multiwell plates (24-well format) and sprayed with the formulated test compound diluted in water. The leaf disks were inoculated with a spore suspension of the fungus 1 day after application. The inoculated leaf segments were incubated at 19° C. and 75% relative humidity (rh) under a light regime of 12 hours light/12 hours darkness in a climate cabinet and the activity of a compound was assessed as percent disease control compared to untreated when an appropriate level of disease damage appears in untreated check leaf segments (7 to 9 days after application). The following compounds at 200 ppm in the applied formulation give at least 80% disease control in this test when compared to untreated control leaf disks under the same conditions, which show extensive disease development.

[3] = system: Puccinia Recondita f. sp. Tritici; test: Puccinia recondita f. sp. tritici / wheat / leaf disc curative (brown rust); format: in vivo; settings: foliar, 200 ppm in the applied formulation, wheat leaf segments cv. Kanzler, curative (applied 1 day after inoculation), assessed 6 to 8 days after application, read-out: disease control compared to untreated control leaf disks
Protocol: Leaf disks or leaf segments of various plant species are cut from plants grown in a greenhouse. The cut leaf disks or segments are placed in multiwell plates (24-well format) onto water agar. The leaf disks are sprayed with a test solution before (preventative) or after (curative) inoculation. Compounds to be tested are prepared as DMSO solutions (max. 10 mg/ml) which are diluted to the appropriate concentration with 0.025% Tween20 just before spraying. The inoculated leaf disks or segments are incubated under defined conditions (temperature, relative humidity, light, etc.) according to the respective test system. A single evaluation of disease level is carried out 3 to 14 days after inoculation, depending on the pathosystem. Percent disease control relative to the untreated check leaf disks or segments is then calculated.
Wheat leaf segments cv. Kanzler are placed on agar in multiwell plates (24-well format). The leaf segments are then inoculated with a spore suspension of the fungus. Plates were stored in darkness at 19° C. and 75% relative humidity. The formulated test compound diluted in water was applied 1 day after inoculation. The leaf segments were incubated at 19° C. and 75% relative humidity under a light regime of 12 hours light/12 hours darkness in a climate cabinet and the activity of a compound was assessed as percent disease control compared to untreated when an appropriate level of disease damage appears in untreated check leaf segments (6 to 8 days after application).
The following compounds at 200 ppm in the applied formulation give at least 80% disease control in this test when compared to untreated control leaf disks under the same conditions, which show extensive disease development.

Row | Structure (SMILES) | inhibition at 20 ppm [1] [%] | melting point [°C] | pest or weed control at 200 ppm [2] [%] | pest or weed control at 200 ppm [3] [%]
1 | CC(=O)Nc1ccc(-c2noc(C(F)(F)F)n2)cc1Cl [Compound 1.1, N-[2-chloro-4-[5-(trifluoromethyl)-1,2,4-oxadiazol-3-yl]phenyl]acetamide] | ≥ 80 | 155 to 170 | – | –
2 | COCC(=O)Nc1ccc(-c2noc(C(F)(F)F)n2)cc1Cl [Compound 1.2, N-[2-chloro-4-[5-(trifluoromethyl)-1,2,4-oxadiazol-3-yl]phenyl]-2-methoxy-acetamide] | ≥ 80 | 77 to 84 | – | –
3 | CC(=O)Nc1ccc(-c2noc(C(F)(F)F)n2)cc1C [Compound 1.3, N-[2-methyl-4-[5-(trifluoromethyl)-1,2,4-oxadiazol-3-yl]phenyl]acetamide] | ≥ 80 | 153 to 179 | ≥ 80 | ≥ 80
4 | CCC(=O)Nc1ccc(-c2noc(C(F)(F)F)n2)cc1C [Compound 1.4, N-[2-methyl-4-[5-(trifluoromethyl)-1,2,4-oxadiazol-3-yl]phenyl]propanamide] | ≥ 80 | 178 to 185 | – | –
5 | COCC(=O)Nc1ccc(-c2noc(C(F)(F)F)n2)cc1C [Compound 1.5, 2-methoxy-N-[2-methyl-4-[5-(trifluoromethyl)-1,2,4-oxadiazol-3-yl]phenyl]acetamide] | ≥ 80 | 73 to 80 | ≥ 80 | –
6 | CCC(=O)Nc1ccc(-c2noc(C(F)(F)F)n2)cc1F [Compound 1.6, N-[2-fluoro-4-[5-(trifluoromethyl)-1,2,4-oxadiazol-3-yl]phenyl]propanamide] | ≥ 80 | 123 to 128 | – | ≥ 80
7 | CC(=O)Nc1ccc(-c2noc(C(F)(F)F)n2)cc1F [Compound 1.7, N-[2-fluoro-4-[5-(trifluoromethyl)-1,2,4-oxadiazol-3-yl]phenyl]acetamide] | ≥ 80 | 120 to 126 | ≥ 80 | ≥ 80
8 | COCC(=O)Nc1ccc(-c2noc(C(F)(F)F)n2)cc1F [Compound 1.8, N-[2-fluoro-4-[5-(trifluoromethyl)-1,2,4-oxadiazol-3-yl]phenyl]-2-methoxy-acetamide] | ≥ 80 | 42 to 46 | ≥ 80 | –
9 | C=CCON(C)C(=O)Nc1ccc(-c2noc(C(F)(F)F)n2)cc1C [Compound 1.11, 1-allyloxy-1-methyl-3-[2-methyl-4-[5-(trifluoromethyl)-1,2,4-oxadiazol-3-yl]phenyl]urea] | ≥ 80 | 62 to 66 | – | –
10 | C=C(C)CONC(=O)Nc1ccc(-c2noc(C(F)(F)F)n2)cc1C [Compound 1.12, 1-(2-methylallyloxy)-3-[2-methyl-4-[5-(trifluoromethyl)-1,2,4-oxadiazol-3-yl]phenyl]urea] | ≥ 80 | 114 to 117 | ≥ 80 | –
11 | C=CCONC(=O)Nc1ccc(-c2noc(C(F)(F)F)n2)cc1C [Compound 1.13, 1-allyloxy-3-[2-methyl-4-[5-(trifluoromethyl)-1,2,4-oxadiazol-3-yl]phenyl]urea] | ≥ 80 | 101 to 104 | ≥ 80 | –
12 | CC(C)C(=O)Nc1ccc(-c2noc(C(F)(F)F)n2)cc1F [Compound 1.14, N-[2-fluoro-4-[5-(trifluoromethyl)-1,2,4-oxadiazol-3-yl]phenyl]-2-methyl-propanamide] | ≥ 80 | – | – | –
13 | COCCC(=O)Nc1ccc(-c2noc(C(F)(F)F)n2)cc1F [Compound 1.15, N-[2-fluoro-4-[5-(trifluoromethyl)-1,2,4-oxadiazol-3-yl]phenyl]-3-methoxy-propanamide] | ≥ 80 | – | – | ≥ 80
14 | CCC(C)C(=O)Nc1ccc(-c2noc(C(F)(F)F)n2)cc1F (stereo not drawn) [Compound 1.16, N-[2-fluoro-4-[5-(trifluoromethyl)-1,2,4-oxadiazol-3-yl]phenyl]-2-methyl-butanamide] | ≥ 80 | – | – | –
15 | CC(CO)(CCl)C(=O)Nc1ccc(-c2noc(C(F)(F)F)n2)cc1F (stereo not drawn) [Compound 1.17, 2-(chloromethyl)-N-[2-fluoro-4-[5-(trifluoromethyl)-1,2,4-oxadiazol-3-yl]phenyl]-3-hydroxy-2-methyl-propanamide] | ≥ 80 | – | ≥ 80 | –
16 | CCC(COC)C(=O)Nc1ccc(-c2noc(C(F)(F)F)n2)cc1F (stereo not drawn) [Compound 1.18, N-[2-fluoro-4-[5-(trifluoromethyl)-1,2,4-oxadiazol-3-yl]phenyl]-2-(methoxymethyl) butanamide] | ≥ 80 | – | ≥ 80 | ≥ 80
17 | COCCCC(=O)Nc1ccc(-c2noc(C(F)(F)F)n2)cc1F [Compound 1.19, N-[2-fluoro-4-[5-(trifluoromethyl)-1,2,4-oxadiazol-3-yl]phenyl]-4-methoxy-butanamide] | ≥ 80 | – | ≥ 80 | –
18 | COCCC(=O)Nc1ccc(-c2noc(C(F)(F)F)n2)cc1C [Compound 1.21, 3-methoxy-N-[2-methyl-4-[5-(trifluoromethyl)-1,2,4-oxadiazol-3-yl]phenyl]propanamide] | ≥ 80 | – | – | –
19 | Cc1cc(-c2noc(C(F)(F)F)n2)ccc1NC(=O)C(C)(CO)CCl (stereo not drawn) [Compound 1.23, 2-(chloromethyl)-3-hydroxy-2-methyl-N-[2-methyl-4-[5-(trifluoromethyl)-1,2,4-oxadiazol-3-yl]phenyl]propanamide] | ≥ 80 | – | – | –
20 | CCC(COC)C(=O)Nc1ccc(-c2noc(C(F)(F)F)n2)cc1C (stereo not drawn) [Compound 1.24, 2-(methoxymethyl)-N-[2-methyl-4-[5-(trifluoromethyl)-1,2,4-oxadiazol-3-yl]phenyl]butanamide] | ≥ 80 | – | – | –
21 | COCCCC(=O)Nc1ccc(-c2noc(C(F)(F)F)n2)cc1C [Compound 1.25, 4-methoxy-N-[2-methyl-4-[5-(trifluoromethyl)-1,2,4-oxadiazol-3-yl]phenyl]butanamide] | ≥ 80 | – | – | –
22 | Cc1cc(-c2noc(C(F)(F)F)n2)ccc1NC(=O)CC#N [Compound 1.26, 2-cyano-N-[2-methyl-4-[5-(trifluoromethyl)-1,2,4-oxadiazol-3-yl]phenyl]acetamide] | ≥ 80 | – | ≥ 80 | –
23 | COC(C)C(=O)Nc1ccc(-c2noc(C(F)(F)F)n2)cc1C (stereo not drawn) [Compound 1.27, 2-methoxy-N-[2-methyl-4-[5-(trifluoromethyl)-1,2,4-oxadiazol-3-yl]phenyl]propanamide] | ≥ 80 | – | – | ≥ 80
24 | Cc1cc(-c2noc(C(F)(F)F)n2)ccc1NC(=O)CC(F)(F)F [Compound 1.28, 3,3,3-trifluoro-N-[2-methyl-4-[5-(trifluoromethyl)-1,2,4-oxadiazol-3-yl]phenyl]propanamide] | – | – | ≥ 80 | –
